# Patent US10428087B2, “Pyrimidinones as PI3K inhibitors” (Incyte Corporation, priority 2009, dated 2019)
# Where a name gives a salt, the structure may show the parent alone.
# System: Pfeiffer cell line (diffuse large B cell lymphoma)
# Test: Pfeiffer cell proliferation assay (Example B2)
# Type: cell-based
# Conditions: Homo sapiens, Pfeiffer, Pfeiffer cells, [3H]-thymidine
# Protocol: Pfeiffer cell line (diffuse large B cell lymphoma) was purchased from ATCC (Manassas, Va.) and maintained in the culture medium recommended (RPMI and 10% FBS). To measure the anti-proliferation activity of the PI3Kδ submittals, the Pfeiffer cells were plated with the culture medium (2×10^3 cells/well/per 200 μl) into 96-well ultra-low binding plates (Corning, Corning, N.Y.), in the presence or absence of a concentration range of test compounds. After 3-4 days, [^3H]-thymidine (1 μCi/well) (PerkinElmer, Boston, Mass.) in PBS was then added to the cell culture for an additional 12 hrs before the incorporated radioactivity was separated by filtration with water through GF/B filters (Packard Bioscience, Meridenj, Conn.) and measured by liquid scintillation counting with a TopCount (Packard Bioscience). See Table 3 for data related to compounds of the invention.
row,SMILES,IC50 [nM]
1,"Cc1csc2nc(C(C)Nc3ncnc4[nH]cnc34)c(-c3ccccn3)c(=O)n12 (stereo not shown) [Example 14, 3-methyl-7-[1-(9H-purin-6-ylamino)ethyl]-6-pyridin-2-yl-5H-[1,3]thiazolo[3,2-a]pyrimidin-5-one]",> 1000
2,"Cc1csc2nc(C(C)Nc3nc(F)nc4[nH]cnc34)c(-c3cc(F)cc(F)c3)c(=O)n12 (stereo not shown) [Example 18, 6-(3,5-difluorophenyl)-7-{1-[(2-fluoro-9H-purin-6-yl)amino]ethyl}-3-methyl-5H-[1,3]thiazolo[3,2-a]pyrimidin-5-one]",50 to 100
3,"Cc1csc2nc(C(C)Nc3ncnc4[nH]cnc34)c(-c3cscn3)c(=O)n12 (stereo not shown) [Example 21, 3-methyl-7-[1-(9H-purin-6-ylamino)ethyl]-6-(1,3-thiazol-4-yl)-5H-[1,3]thiazolo[3,2-a]pyrimidin-5-one trifluoroacetic acid salt]",50 to 100
4,"Cc1csc2nc(C(C)Nc3ncnc4[nH]cnc34)c(-c3ccc(F)cc3)c(=O)n12 (stereo not shown) [Example 22, 6-(4-fluorophenyl)-3-methyl-7-[1-(9H-purin-6-ylamino)ethyl]-5H-[1,3]thiazolo[3,2-a]pyrimidin-5-one trifluoroacetic acid salt]",100 to 500
5,"CC(Nc1nc(N)nc2[nH]cnc12)c1nc2sccn2c(=O)c1-c1cc(F)cc(F)c1 (stereo not shown) [Example 24, 7-{1-[(2-amino-9H-purin-6-yl)amino]ethyl}-6-(3,5-difluorophenyl)-5H-[1,3]thiazolo[3,2-a]pyrimidin-5-one]",100 to 500
6,"CC(Nc1ncnc2[nH]cnc12)c1nc2sccn2c(=O)c1-c1cc(F)cc(F)c1 (stereo not shown) [Example 25, 6-(3,5-difluorophenyl)-7-[1-(9H-purin-6-ylamino)ethyl]-5H-[1,3]thiazolo[3,2-a]pyrimidin-5-one]",500 to 1000
7,"CC(Nc1nc(N)nc2[nH]cnc12)c1nc2sccn2c(=O)c1-c1ccccc1 (stereo not shown) [Example 27, 7-{1-[(2-amino-9H-purin-6-yl)amino]ethyl}-6-phenyl-5H-[1,3]thiazolo[3,2-a]pyrimidin-5-one]",100 to 500
8,"Cc1csc2nc(C(C)Nc3nc(N)nc4[nH]cnc34)c(-c3cccc(Cl)c3)c(=O)n12 (stereo not shown) [Example 32, 7-{1-[(2-amino-9H-purin-6-yl)amino]ethyl}-6-(3-chlorophenyl)-3-methyl-5H-[1,3]thiazolo[3,2-a]pyrimidin-5-one trifluoroacetic acid salt]",< 50
9,"Cc1csc2nc(C(C)Nc3nc(N)nc4[nH]cnc34)c(-c3ccccc3F)c(=O)n12 (stereo not shown) [Example 33, 7-{1-[(2-amino-9H-purin-6-yl)amino]ethyl}-6-(2-fluorophenyl)-3-methyl-5H-[1,3]thiazolo[3,2-a]pyrimidin-5-one trifluoroacetic acid salt]",< 50
10,"Cc1csc2nc(C(C)Nc3nc(N)nc4[nH]cnc34)c(-c3cc(F)cc(Cl)c3)c(=O)n12 (stereo not shown) [Example 35, 7-{1-[(2-amino-9H-purin-6-yl)amino]ethyl}-6-(3-chloro-5-fluorophenyl)-3-methyl-5H-[1,3]thiazolo[3,2-a]pyrimidin-5-one trifluoroacetic acid salt]",< 50
11,"Cc1csc2nc(C(C)Nc3ncnc4[nH]cnc34)c(-c3cccc(Cl)c3)c(=O)n12 (stereo not shown) [Example 36, 6-(3-chlorophenyl)-3-methyl-7-[1-(9H-purin-6-ylamino)ethyl]-5H-[1,3]thiazolo[3,2-a]pyrimidin-5-one trifluoroacetic acid salt]",50 to 100
12,"Cc1csc2nc(C(C)Nc3ncnc4[nH]cnc34)c(-c3ccccc3F)c(=O)n12 (stereo not shown) [Example 40, 6-(2-fluorophenyl)-3-methyl-7-[1-(9H-purin-6-ylamino)ethyl]-5H-[1,3]thiazolo[3,2-a]pyrimidin-5-one trifluoroacetic acid salt]",50 to 100
13,"Cc1csc2nc(C(C)Nc3ncnc4[nH]cnc34)c(-c3cccc(F)c3F)c(=O)n12 (stereo not shown) [Example 41, 6-(2,3-difluorophenyl)-3-methyl-7-[1-(9H-purin-6-ylamino)ethyl]-5H-[1,3]thiazolo[3,2-a]pyrimidin-5-one trifluoroacetic acid salt]",50 to 100
14,"Cc1csc2nc([C@H](C)Nc3ccnc4[nH]cnc34)c(-c3cccc(F)c3)c(=O)n12 [Example 46, 6-(3-Fluorophenyl)-7-[(1S)-1-(3H-imidazo[4,5-b]pyridin-7-ylamino)ethyl]-3-methyl-5H-[1,3]thiazolo[3,2-a]pyrimidin-5-one]",< 50
15,"CC(Nc1ncnc2[nH]cnc12)c1nc2scc(C(F)(F)F)n2c(=O)c1-c1cccc(F)c1 (stereo not shown) [Example 48, 6-(3-Fluorophenyl)-7-[1-(9H-purin-6-ylamino)ethyl]-3-(trifluoromethyl)-5H-[1,3]thiazolo[3,2-a]pyrimidin-5-one]",50 to 100
16,"Cc1cccc2nc(C(C)Nc3nc(N)nc4[nH]cnc34)c(-c3ccccc3)c(=O)n12 (stereo not shown) [Example 50, 2-{1-[(2-Amino-9H-purin-6-yl)amino]ethyl}-6-methyl-3-phenyl-4H-pyrido[1,2-a]pyrimidin-4-one trifluoroacetic acid salt]",< 50
17,"Cc1cccc(-c2c(C(C)Nc3ncnc4[nH]cnc34)nc3cccc(C)n3c2=O)c1 (stereo not shown) [Example 51, 6-Methyl-3-(3-methylphenyl)-2-[1-(9H-purin-6-ylamino)ethyl]-4H-pyrido[1,2-a]pyrimidin-4-one trifluoroacetic acid salt]",100 to 500
18,"Cc1cccc(-c2c(C(C)Nc3nc(N)nc4[nH]cnc34)nc3cccc(C)n3c2=O)c1 (stereo not shown) [Example 52, 2-{1-[(2-Amino-9H-purin-6-yl)amino]ethyl}-6-methyl-3-(3-methylphenyl)-4H-pyrido[1,2-a]pyrimidin-4-one trifluoroacetic acid salt]",50 to 100
19,"Cc1cccc2nc(C(C)Nc3ncnc4[nH]cnc34)c(-c3cccc(Cl)c3)c(=O)n12 (stereo not shown) [Example 53, 3-(3-Chlorophenyl)-6-methyl-2-[1-(9H-purin-6-ylamino)ethyl]-4H-pyrido[1,2-a]pyrimidin-4-one trifluoroacetic acid salt]",50 to 100
20,"Cc1cccc2nc(C(C)Nc3nc(N)nc4[nH]cnc34)c(-c3cccc(Cl)c3)c(=O)n12 (stereo not shown) [Example 54, 2-{1-[(2-Amino-9H-purin-6-yl)amino]ethyl}-3-(3-chlorophenyl)-6-methyl-4H-pyrido[1,2-a]pyrimidin-4-one trifluoroacetic acid salt]",50 to 100

# The next lines start with the values.
row,IC50 [nM],SMILES
1,100 to 500,"Cc1csc2nc(C(C)Nc3ncnc4[nH]cnc34)c(-c3cc(F)cc(F)c3)c(=O)n12 (stereo not shown) [Example 12, 6-(3,5-difluorophenyl)-3-methyl-7-[1-(9H-purin-6-ylamino)ethyl]-5H-[1,3]thiazolo[3,2-a]pyrimidin-5-one]"
2,100 to 500,"Cc1csc2nc([C@H](C)Nc3ncnc4[nH]ccc34)c(-c3cc(F)cc(F)c3)c(=O)n12 [Example 17, 6-(3,5-difluorophenyl)-3-methyl-7-[1-(7H-pyrrolo[2,3-d]pyrimidin-4-ylamino)ethyl]-5H-[1,3]thiazolo[3,2-a]pyrimidin-5-one]"
3,> 1000,"Cc1csc2nc(C(C)Nc3ncnc4[nH]cnc34)c(-c3ccncc3)c(=O)n12 (stereo not shown) [Example 19, 3-methyl-7-[1-(9H-purin-6-ylamino)ethyl]-6-pyridin-4-yl-5H-[1,3]thiazolo[3,2-a]pyrimidin-5-one]"
4,50 to 100,"Cc1csc2nc(C(C)Nc3ncnc4[nH]cnc34)c(-c3nccs3)c(=O)n12 (stereo not shown) [Example 20, 3-methyl-7-[1-(9H-purin-6-ylamino)ethyl]-6-(1,3-thiazol-2-yl)-5H-[1,3]thiazolo[3,2-a]pyrimidin-5-one trifluoroacetic acid salt]"
5,100 to 500,"Cc1ccc(-c2c(C(C)Nc3ncnc4[nH]cnc34)nc3scc(C)n3c2=O)cc1 (stereo not shown) [Example 31, 3-methyl-6-(4-methylphenyl)-7-[1-(9H-purin-6-ylamino)ethyl]-5H-[1,3]thiazolo[3,2-a]pyrimidin-5-one trifluoroacetic acid salt]"
6,< 50,"Cc1csc2nc(C(C)Nc3nc(N)nc4[nH]cnc34)c(-c3cccc(F)c3F)c(=O)n12 (stereo not shown) [Example 34, 7-{1-[(2-amino-9H-purin-6-yl)amino]ethyl}-6-(2,3-difluorophenyl)-3-methyl-5H-[1,3]thiazolo[3,2-a]pyrimidin-5-one trifluoroacetic acid salt]"
7,50 to 100,"Cc1csc2nc(C(C)Nc3ncnc4[nH]cnc34)c(-c3cc(F)cc(Cl)c3)c(=O)n12 (stereo not shown) [Example 37, 6-(3-chloro-5-fluorophenyl)-3-methyl-7-[1-(9H-purin-6-ylamino)ethyl]-5H-[1,3]thiazolo[3,2-a]pyrimidin-5-one trifluoroacetic acid salt]"
8,50 to 100,"Cc1csc2nc(C(C)Nc3nc(N)nc4[nH]cnc34)c(-c3cncc(F)c3)c(=O)n12 (stereo not shown) [Example 38, 7-{1-[(2-amino-9H-purin-6-yl)amino]ethyl}-6-(5-fluoropyridin-3-yl)-3-methyl-5H-[1,3]thiazolo[3,2-a]pyrimidin-5-one trifluoroacetic acid salt]"
9,100 to 500,"Cc1csc2nc(C(C)Nc3ncnc4[nH]cnc34)c(-c3cncc(F)c3)c(=O)n12 (stereo not shown) [Example 42, 6-(5-fluoropyridin-3-yl)-3-methyl-7-[1-(9H-purin-6-ylamino)ethyl]-5H-[1,3]thiazolo[3,2-a]pyrimidin-5-one trifluoroacetic acid salt]"
10,50 to 100,"Cc1csc2nc(C(C)Nc3ncnc4[nH]cnc34)c(-c3cc(F)ccc3F)c(=O)n12 (stereo not shown) [Example 45, 6-(2,5-difluorophenyl)-3-methyl-7-[1-(9H-purin-6-ylamino)ethyl]-5H-[1,3]thiazolo[3,2-a]pyrimidin-5-one trifluoroacetic acid salt]"
11,50 to 100,"Cc1cccc2nc(C(C)Nc3ncnc4[nH]cnc34)c(-c3ccccc3)c(=O)n12 (stereo not shown) [Example 49, 6-Methyl-3-phenyl-2-[1-(9H-purin-6-ylamino)ethyl]-4H-pyrido[1,2-a]pyrimidin-4-one trifluoroacetic acid salt]"
